Laboratory results from article PMC6882365, “Directed evolution of the PcaV allosteric transcription factor to generate a biosensor for aromatic aldehydes” (Journal of Biological Engineering, 2019).
Changes are numbered by the printed parent chain.

Assays:
PcaV I110V = biological target: T1, PcaV I110V (Streptomyces coelicolor, UniProt Q9XAM6, I110V); assay: cell-based; conditions: read-out: Max/Min (2.5 mM induction) / PCA
T1 construct: gene SCO6704

Van2 (PcaV mutant) [1] = biological target: T2, Van2 (PcaV mutant) (Streptomyces coelicolor, UniProt Q9XAM6, I110V/M113S/N114A); assay: EMSA titration ([…]), disruption of the Van2-PV DNA complex; no response in cells; type: biochemical
T2 construct: gene SCO6704; His-TEV tag-cleaved purified protein, homodimer
T2 sequence (Q9XAM6 1-154 I110V/M113S/N114A): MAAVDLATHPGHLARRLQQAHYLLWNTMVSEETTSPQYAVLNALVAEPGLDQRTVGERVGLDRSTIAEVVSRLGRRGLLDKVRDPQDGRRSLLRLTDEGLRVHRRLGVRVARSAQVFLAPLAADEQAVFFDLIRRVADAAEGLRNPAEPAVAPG

PcaV N114A = biological target: T3, PcaV N114A (Streptomyces coelicolor, UniProt Q9XAM6, N114A); assay: cell-based; conditions: read-out: Max/Min (2.5 mM induction) / PCA
T3 construct: gene SCO6704

[2] = biological target: Van2 aTF (PcaV I110V M113S N114A) (Streptomyces coelicolor); assay: SEC-MALS; 0.75 mL at 1.5 mg/mL loaded on Superdex 10/300 GL; in the absence of the effector
Van2 (PcaV mutant) [3] = biological target: T4, Van2 (PcaV mutant) (Streptomyces coelicolor, UniProt Q9XAM6, I110V/M113S/N114A); assay: cell-based; conditions: read-out: E. coli RARE eGFP derepression reporter, 2.5 mM
T4 construct: gene SCO6704

PcaV [4] = biological target: T5, PcaV (Streptomyces coelicolor, UniProt Q9XAM6); assay: E. coli PcaV/PPV-eGFP derepression reporter, dose response; type: cell-based
T5 construct: gene SCO6704

[5] = biological target: PcaV allosteric transcription factor from Streptomyces coelicolor (Streptomyces coelicolor); assay: SEC-MALS; 0.75 mL at 1.5 mg/mL loaded on Superdex 10/300 GL; in the absence of the effector
Van2 [6] = biological target: T6, Van2 (Streptomyces coelicolor, UniProt Q9XAM6 1-154, I110V;M113S;N114A); assay: SPR; no effector; 9.4-600 nM protein; SPR: 10 mM Hepes, 150 mM NaCl, pH 7.4 (temperature not stated); EMSA: 50 mM Tris-HCl, 50 mM KCl, 5 mM MgCl2, 1 mM EDTA, 5% glycerol, 0.1 ug poly(dI-dC), 1 mM DTT, 30 C 20 min (+30 min with ligand); conditions: protein: recombinant; tags: N-terminal His-TEV, removed by TEV protease; chain copies: 2; label: 5' biotin on strand 1; blunt
T6 sequence: T2 sequence (Q9XAM6 1-154 I110V/M113S/N114A)

PcaV [7] = biological target: T7, PcaV (Streptomyces coelicolor, UniProt Q9XAM6 1-154); assay: EMSA; no effector; 250 nM protein, 500 pM probe; SPR: 10 mM Hepes, 150 mM NaCl, pH 7.4 (temperature not stated); EMSA: 50 mM Tris-HCl, 50 mM KCl, 5 mM MgCl2, 1 mM EDTA, 5% glycerol, 0.1 ug poly(dI-dC), 1 mM DTT, 30 C 20 min (+30 min with ligand); conditions: protein: recombinant; tags: N-terminal His-TEV, removed by TEV protease; chain copies: 2; label: 5' IRD700 on both strands; blunt
T7 sequence: T2 sequence (Q9XAM6 1-154 I110V/M113S/N114A) with V110I, S113M, A114N

Van2 [8] = biological target: T6, Van2; assay: EMSA; no effector; 500 nM protein, 500 pM probe; SPR: 10 mM Hepes, 150 mM NaCl, pH 7.4 (temperature not stated); EMSA: 50 mM Tris-HCl, 50 mM KCl, 5 mM MgCl2, 1 mM EDTA, 5% glycerol, 0.1 ug poly(dI-dC), 1 mM DTT, 30 C 20 min (+30 min with ligand); conditions: protein: recombinant; tags: N-terminal His-TEV, removed by TEV protease; chain copies: 2; label: 5' IRD700 on both strands; blunt

O=C(O)c1ccc(O)c(O)c1 [PCA, 3,4-dihydroxybenzoic acid]
fold induction at 2500 µM (PcaV I110V): 304
EMSA titration (2.5-12.5 mM), disruption of the Van2-PV DNA complex; no response (Van2 (PcaV mutant) [1]): Van2 responds to vanillin but is still responsive to PCA in contradiction with the observed in vivo biosensor performance
fold induction at 2500 µM (PcaV N114A): 18

Van2 aTF (PcaV I110V M113S N114A)
stoichiometry N [2]: 2

Cc1cc(C=O)ccc1O [4-hydroxy-3-methylbenzaldehyde]
fold induction at 2500 µM (Van2 (PcaV mutant) [3]): > 6

O=C(O)c1cccc(O)c1 [3HB, 3-hydroxybenzoic acid]
E. coli PcaV/PPV-eGFP derepression reporter, dose response (PcaV [4]): 3-hydroxybenzoic acid (3HB) and 4-hydroxybenzoic acid (4HB), as observed by fitting the dose response curves

O=Cc1ccccc1O [2-hydroxybenzaldehyde]
fold induction at 2500 µM (Van2 (PcaV mutant) [3]): > 6

O=Cc1ccc(O)c(O)c1 [3,4-dihydroxybenzaldehyde]
fold induction at 2500 µM (Van2 (PcaV mutant) [3]): > 6

PcaV allosteric transcription factor from Streptomyces coelicolor (natural protein)
stoichiometry N [5]: 2

O=C(O)c1ccc(O)cc1 [4HB, 4-hydroxybenzoic acid]
E. coli PcaV/PPV-eGFP derepression reporter, dose response (PcaV [4]): 3-hydroxybenzoic acid (3HB) and 4-hydroxybenzoic acid (4HB), as observed by fitting the dose response curves

B1: PV Probe Bio (dsDNA)
DNA 1: TTGACTATACTCAGTGCCCTGACTATGATACT
DNA 2: AGTATCATAGTCAGGGCACTGAGTATAGTCAA
Kd (Van2 [6]): 0.0867 µM

B2: PV Probe (IR700 duplex) (dsDNA)
DNA 1: B1 DNA 1
DNA 2: B1 DNA 2
binding result (PcaV [7]): binds

B3: Rnd Probe (IR700 duplex) (dsDNA)
DNA 1: GAGTTAGAGTACGCGTTAAACACTTCACAGAT
DNA 2: ATCTGTGAAGTGTTTAACGCGTACTCTAACTC
binding result (Van2 [8]): no binding
